In a melting point compilation (Tetko et al.; mined from patent text by program, amines drawn as free bases though some values may be those of a salt):

melting point [°C] | SMILES
132 to 135 | O=C(NCCCn1cnc(-c2ccccc2)c1)c1ccc(Br)cc1
240 to 241 | O=C(Cn1c(-c2ccc(Cl)cc2)nc2cccnc21)NC1CCCCC1
150 to 153 | OC1CC(c2ccccc2)C(c2ccccc2)(c2ccc(OCCN3CCOCC3)cc2)O1 (centres undefined)
175 to 176 | CS(=O)(=O)c1ccc(-c2cc(=O)n(CC3CCCCC3)nc2-c2ccc(F)cc2)cc1
117 to 119 | CC(C)Oc1ccc(S(=O)(=O)c2c(O)cccc2F)c([N+](=O)[O-])c1
189 to 191 | Cc1ccccc1C(Oc1cc(OCc2ccc3ocnc3c2)ccc1C#N)C(=O)O (racemic)
162 to 163 | CC(C)Oc1ccn2nc(-c3ccccc3)c(-c3ccc(=O)n(C(C)C)n3)c2c1
126 | Cc1ccccc1OCCN1CCC(CNc2nc3ccccc3s2)CC1
> 300 | CN(C)C1CCCN(C(=O)c2ccc(-c3[nH]nc4c3C(=O)c3c(NC(=O)NN5CCOCC5)cccc3-4)s2)C1 (centres undefined)
138 | COc1cccc(C(=Cc2ccccc2)c2cccc(OC)c2OC)c1OC
68 to 70 | CC=NN(C(=O)c1ccccc1)c1ccc(OC)cc1
174 to 178 | CC(=O)NNc1ccnc2c(NC(=O)c3c(Cl)cccc3Cl)cc(C(F)(F)F)cc12
136 | CCn1cc(C(=O)O)c(=O)c2cnc(N3CCN(Cc4ccc(OC)cc4)CC3)nc21
109 to 111 | COc1ccc(CCc2cc3cc(Br)ccc3o2)cc1
111 to 115 | COc1cc2c(Nc3cccc(Cl)c3F)ncnc2cc1OC1CCN(C(=O)C(C)(C)CO)CC1
103 to 106 | COc1ccc2c(c1)CC(NC(=S)NCCOC(=O)c1ccccc1)CC2 (centres undefined)
149 to 156 | CN(C)C(=O)C(C)(C)Sc1nc2ccccc2cc1-c1ccccc1

melting point [°C] | SMILES
190 | O=C1c2ccc(OCCCO)cc2C(=O)c2ccc(OCCCO)cc21
231 to 234 | COc1ccc2c(c1OC)CCC1CN(C(=O)CCc3ccc([N+](=O)[O-])cc3)CC21 (centres undefined)
206 to 208 | COc1cc(OC)c(-c2cc3ccccc3[nH]2)cc1C=CC(=O)c1ccc(S(=O)(=O)Nc2ccccn2)cc1
228 to 229 | NS(=O)(=O)c1ccc(-c2oc3ccc(F)cc3c(=O)c2-c2ccccc2)cc1
166 to 168 | COc1ccc(NC(=N)c2ccc(SC)cc2)cc1
146 | COc1ccc(/C=C/c2nc3ccccc3n2-c2ccccn2)cc1
96 to 97 | Cn1nc(C(F)(F)F)nc1NC(=O)CCCOc1cccc(CN2CCCCC2)c1
109 to 111 | COc1cccc(N2CCN(C(=O)Oc3ccc(Oc4ccc(C(F)(F)F)cn4)cc3)CC2)c1
249 to 251 | CCOC(=O)c1c(N)c2cc(Cl)ccc2n1C(=O)C(F)(F)F
117 to 118 | COC(=O)C1=C(C)NC(C)=C(C(=O)OCCc2ccc(OCC(O)CO)cc2)C1c1cccc([N+](=O)[O-])c1 (centres undefined)
40 to 45 | COc1ccc(C2=NN(c3ccc(OCCBr)cc3)C(=O)[C@@H]3CC=CC[C@H]23)cc1OC
142 | COc1ccc(CN(C)CCCSc2ccc(NC(=O)c3cccc4c(=O)c5cccc(SC)c5[nH]c34)cc2)cc1OC
194 to 196 | O=C1Cc2cc(NC(=O)C(=O)N3CCC(Oc4ccc(Cl)cc4)CC3)ccc2N1
211 to 214 | O=C(NS(=O)(=O)c1ccc(Cl)cc1)N1CC(c2ccccc2)C(c2ccc(Cl)cc2)=N1 (centres undefined)
195 to 197 | CNc1nc(-c2cccc(-c3cccc(SC)c3)c2)c2cc(OC)c(OC)cc2n1
129 to 131 | Cc1cc(SCc2cnc(-c3ccc(C(F)(F)F)cc3)nc2C2CC2)ccc1OC(C)(C)C(=O)O
80 to 83 | Fc1ccc(-c2cnc(SC(F)(F)F)nc2-c2ccc(F)cc2)cc1

Further lines, the compound ahead of its results:

SMILES | melting point [°C]
Cn1ccc2cccc(C3=C(c4c[nH]c5c(CCCO)cccc45)C(=O)NC3=O)c21 | 183 to 185
CCCC(=O)NN=C(C)c1ccncc1Cl | 104
COc1nc(Oc2ccccc2C(=O)O)nc(N(C)C)n1 | 148 to 149
CC(C)C[C@@H](CO)NC(=O)[C@H](Cc1c[nH]cn1)N(C(=O)[C@H](Cc1cccc2ccccc12)NC(=O)OCc1ccccc1)C(=O)[C@@H](N)Cc1cccc2ccccc12 | 199 to 200
Cc1cc2c([N+](=O)[O-])cccc2c(Cl)n1 | 112
CC1(C)CCc2c(N3CCOCC3)nc3sc4c(NCCc5c[nH]cn5)ncnc4c3c2C1 | 223 to 224
CS(=O)(=O)Nc1cc([N+](=O)[O-])ccc1OC1CCCCC1 | 105 to 106
COc1cccc(CO)c1C(O)c1ccccn1 (centres undefined) | 102 to 104
Cc1ccccc1S(=O)(=O)NC(N)=O | 179 to 180
CS(=O)(=O)c1ccc(/C(=C\CC2CCCC2)C(=O)O)cc1 | 162 to 165
CCCNc1ccc(NC(=O)c2ccc(NC(=O)c3ccc(NCCC)nc3)nc2)nc1 | 249 to 250
CCC(CC)Nc1c(C)cnc(Oc2c(C)cc(Cl)cc2C)c1N | 72 to 74
CC(=O)c1cc2sc(N)c(C#N)c2s1 | 285
CC(C)CCS(=O)(=O)NC(=O)OCc1cc(OC(C)C)nn1Cc1ccc(Cl)cc1Cl | 104 to 107
Oc1ncnc2c1c(Nc1ccccc1)nn2Cc1ccccc1 | 246 to 247
Cc1cc(CCCCCCCOc2ccc(C(=O)NN)cc2)on1 | 121 to 122
CCOC(=O)CNc1ncccc1NC(=O)c1ccc(Cl)cc1 | 133 to 134
NC(=O)N(O)CCNC(=O)c1cccn1Cc1ccc(Cl)cc1 | 158 to 160
CCOC(=O)c1cnc(Cl)cc1NC | 61.4 to 63.1
COc1cc(C(=O)c2ccc([N+](=O)[O-])cc2)c(CC(=O)O)cc1Br | 189 to 192
CCOc1ncc(Cl)cc1C1OC(=O)NC1=O (centres undefined) | 119 to 124
CCCCCN1C(=O)C(O)(c2cc3c(cc2O)OCO3)c2cnccc21 (centres undefined) | 193 to 195

SMILES | melting point [°C]
FC(F)(F)COc1ccccc1N1CCNCC1 | 107 to 108
OC(CS)(Cn1cncn1)c1ccc(Cl)cc1Cl (centres undefined) | 139 to 142
CC(NC(=O)C1=C(C(=O)Nc2cc(OC3CCCCC3)c(Cl)cc2F)CCCC1)c1ccccc1 (centres undefined) | 156 to 159
Brc1ccc(OCCc2c[nH]cn2)cc1 | 162 to 165
O=C(O)c1cc(-c2ccc3c(c2)CCO3)nn(CCCc2ccc(Cl)cc2)c1=O | 157 to 160
O=C(O)C1CS(=O)(=O)C2CC(=O)N12 (centres undefined) | 164 to 167
CCOc1ccc2[nH]cc(CC(C)(C(=O)OC)[N+](=O)[O-])c2c1 (racemic) | 80 to 82
CN1CCC(=O)C(C(c2ccc(Cl)cc2)c2ccc(Cl)cc2)C1 (centres undefined) | 146 to 147
CC[C@H](C(N)=O)N1CCCC1=O | 115 to 117
CCOC(=O)Cc1ccc(C(=O)c2ccc([N+](=O)[O-])cc2)n1C | 103 to 106
CC1(C)CNc2nc(-c3ccncc3)c(F)c(=O)n2C1 | 190 to 192
CCn1c(=O)c2[nH]c(/C=C/c3ccc(OC)c(OC)c3OC)nc2n(CC)c1=O | 276 to 277
O=[N+]([O-])c1ccc(S(=O)(=O)Nc2cccc3c(Cl)c[nH]c23)cc1 | 200
CCOC(=O)c1ccc2c(c1)C(=O)c1nc3ccccc3c(=O)n1-2 | 270 to 273
CN1CCN(C(=O)OC(C)(C)C)CC1C(N)=O (centres undefined) | 137 to 138
O=C1CCN(c2c(F)cc([N+](=O)[O-])cc2F)CC1 | 130 to 132
CN(C)c1cccc2c1C(=O)N(C1(C(N)=O)CCCCC1)C2=O | 166 to 169
Cc1ccc(Cl)cc1NC(=S)Nc1nc(C)c(C)s1 | 188 to 189
CCCc1c(OCCCOc2ccc3c(c2)CCC(CC(=O)O)C3=O)ccc(C(C)=O)c1O (centres undefined) | 123 to 125
O=C(Nc1nnc(CC2CC2)o1)C(c1ccccc1)c1ccccc1 | 158 to 159
CCC(CC)O[C@@H]1C=C(C(=O)OC)C[C@H](CC(O)CN=[N+]=[N-])[C@H]1NC(C)=O (some centres undefined) | 92 to 93
COc1ccc2c(c1OC)CCC2c1c[nH]cn1 (centres undefined) | 156 to 158

SMILES | melting point [°C]
CCN(CC)CCNC(=O)N1CCC(S(=O)(=O)c2ccc(Cl)cc2)C1 (centres undefined) | 86 to 87.5
COc1c(Cl)cc(C(C)(C)N(CC(C)=O)C(=O)Cc2ccccc2)cc1Cl | 126 to 127
CC1(C)CCC(C)(C)c2c(C(O)C#C[Si](C)(C)C)cc(-c3ccccc3)cc21 (centres undefined) | 145
CCOC(=O)CCC(=O)c1ccc(Cl)cc1O | 68 to 69
C[C@@H]1N=C(c2ccccc2Cl)c2cc(I)sc2NC1=O | 235 to 237
COC(=O)C(Cc1c[nH]c2ccccc12)NCOC(C)[Si](C)(C)C (racemic) | 113 to 115
CN(c1cccc2cc(C3=NCC(CCNc4nnc[nH]4)S3)[nH]c12)S(=O)(=O)c1cccs1 (centres undefined) | 195
Cn1c(C(F)(F)F)cc(=O)n(-c2cc(OCC(C)(C)C)c(Cl)cc2F)c1=O | 122 to 124
CC(=O)C#CC1CCC2C3CCC4CC(O)CCC4(C)C3CCC12C (centres undefined) | 148 to 150
CC(C)COc1ccc(-n2ncc(C(=O)O)c2Cl)cc1C#N | 216 to 218
CC(C)(C)c1cc(Cc2cc(C(C)(C)C)cc(C(C)(C)C)c2O)c(O)c(C(C)(C)C)c1 | 141 to 142
CCCCCCCCCCCCCCCCCCN(CCCCCCCCCCCCCCCCCC)C(=O)N1CCN(C)CC1 | 46 to 47
O=C1Cc2cc(Cl)cc(C(=O)c3ccccc3)c2N1 | 186 to 187
CSC(=S)NCCNC(C)=O | 139 to 140
CN(C(=O)C1(C(=O)O)CC1)c1ccc(Cl)cc1 | 156 to 158
O=C1Nc2ccccc2C(c2ccccc2)N1C1CCN(CC2CC2)CC1 (centres undefined) | 276 to 281
CCOC(=O)NC1N=C(c2ccc(Cl)cc2)c2oc3ccccc3c2NC1=O (centres undefined) | > 260
NCc1ccn(-c2cc3[nH]c(=O)c(=O)[nH]c3cc2[N+](=O)[O-])c1 | > 300
COC(=O)c1ccc(-c2csc(N3C(=O)OCC3(C)C)n2)cc1 | 176 to 179
CCCCCCCC(=O)OCCc1c(-c2ccccc2)nc(N)n2ncnc12 | 89 to 91
CN1CCCC(O)(c2cccc3[nH]ccc23)C1 (centres undefined) | 250
